Assay results: patent US20060094741A1, “Remedies for neuropathic pain and model animals of neuropathic pain” (Toray Industries, Inc., a corporation of Japan, priority 1999, published 2006)
“Also recorded” adds a separate entry of the source.

What was measured:
[1] = test system: pain-related behavior induced by intrathecal administration of Compound 1; experiment: Inhibition of tentative responses for nociception (scratching, biting, licking) induced by intrathecal Compound 1; assay type: in vivo, mouse
Experimental: (§1) Scratching, biting, and licking behavior was regarded as an index of tentative responses for nociception, and the duration of such behavior was measured for 5 minutes from 5 minutes after the administration of Compound 1 in a transparent acrylic cage (20×13×10 cm) in a single-blind manner.
(§2) Mice (ddY; weighing 22 to 25 g when the experiment was started) were kept in a plastic cage at a constant temperature and humidity (22±1° C., 55±5%) under a 12-hour light-dark cycle. The mice had free access to food and water.
(§3) Compound 1 was dissolved in a physiological saline solution (Ohtsuka Pharmaceutical Co., Ltd.) and was intrathecally administered to the mice without anesthetization. The intrathecal dose of the drug solution per mouse was 4 μl, and a 30 gauge needle and a 25 μl Hamilton syringe were used according to the method disclosed by Hylden and Wilcox (J. L. K. Hylden & G. L. Wilcox, Eur. J. Pharmacol., 67: 313-316, 1980).
(−)-17cyclopropyl-3,1 4β-dihydroxy-4,5α-epoxy-6β-[N-methyl-trans-3-(3-furyl) acrylamide] morphinan hydrochloride (Compound 2) (H. Nagase et al. Chem. Pharm. Bull. 46, 366, 1998), of which the formula is shown below, [drawing 14] as a selective opioid κ-receptor agonist compound, was intrathecally administered to the mice simultaneously with Compound 1, and the effect thereof on neuropathic pain was evaluated based on tentative responses for nociception, such as scratching, biting, and licking behavior, as indexes. The duration of such behavior was measured for 5 minutes from 5 minutes after the administration of the simultaneous administration of Compound 2 and Compound 1 (15 μg/mouse) in a transparent acrylic cage (20×13×10 cm) in a single-blind manner. Additionally, Compound 2 was dissolved in a physiological saline solution for use.
In order to determine the effect of the drug on neuropathic pain, tentative responses for nociception were tested in the case in which a low dose of 1 or 3 nmol/mouse of Compound 2 was intrathecally administered simultaneously with Compound 1 in a manner similar to that of Example 2 and in the case in which Compound 2 was subcutaneously administered so that systemic exposure to the drug was evaluated. […] Since the effectiveness of Compound 2 has also been shown in systemic exposure, it has become clear that Compound 2 is effective even if the drug is not administered topically, that is, even if the drug is administered in various dosage forms which are pharmacologically acceptable.

mice (ddY) = experiment: Production of the neuropathic pain animal model: scratching, biting and licking behavior after intrathecal Compound 1; assay type: in vivo; conditions: 7.5 μg/mouse or more, measured for 5 minutes from 5 minutes after administration
Experimental: as §2
as §3, with “(+)-4a-(3-hydroxyphenyl)-2-methyl-1,2,3,4,4a, 5,12,12a-octahydrotrans-quinolino [2,3-g]isoquinoline (Compound 1)” for “Compound 1”
as §1

[2] = test system: sciatic nerve ligation mouse model; experiment: Sciatic nerve ligation mouse model, allodynia/hyperalgesia by von Frey hairs; assay type: in vivo; conditions: subcutaneous
Text: The action of Compound 2 in inhibiting neuropathic pain was investigated using another, widely known neuropathic pain model. That is, the action of Compound 2 in a sciatic nerve ligation mouse model was investigated using a method in which the method disclosed by A. B. Malmberg and A. I. Basbaum (Pain, 76, 215-222, 1998) et al. was slightly modified. In order to measure allodynia or hyperalgesia generally observed in neuropathic pain, two von Frey hairs (0.17 and 1.48 g) having different strengths were used. Four weeks following the surgery, the mice were placed in an acrylic cage (90×100×300 mm) and allowed to acclimate for a minimum of 30 minutes. The von Frey hairs were applied perpendicularly to the soles of the hind feet so as to cause slight bending for a duration of approximately 3 seconds. This was repeated 6 times at intervals of several seconds. The reaction of the mouse was given a score in the manner described below.
2: Immediate escape reaction and flinching of hind paw
The reactions of the surgically operated foot and the opposite foot as control were measured before the administration of the drug, and 30 minutes and 2 hours after the administration of the drug. The difference between the score of the surgically operated foot and the score of the control foot was evaluated as allodynia or hyperalgesia. […]

[3] = test system: pain associated with zosteriform skin lesions; experiment: Herpetic pain model, allodynia/hyperalgesia associated with zosteriform skin lesions; assay type: in vivo; conditions: orally administered; thirty minutes after the administration
Text: The therapeutic effect of Compound 2 on pain associated with zoster classified under neuropathic pain was investigated. The evaluation of the therapeutic effect was made using an animal model produced according to a method disclosed in Pain, 86, 95-101, 2000.

[4] = simultaneous intrathecal administration with 15 μg/mouse of Compound 1

NCC(CC(=O)O)c1ccc(Cl)cc1 (stereo not shown) [Baclofen, reference compound]
inhibition of tentative responses for nociception induced by Compound 1 [1, 4]: inhibited dose-dependently

CN1CC[C@@]2(c3cccc(O)c3)Cc3nc4ccccc4cc3C[C@@H]2C1 [Compound 1, (+)-4a-(3-hydroxyphenyl)-2-methyl-1,2,3,4,4a, 5,12,12a-octahydrotrans-quinolino [2,3-g]isoquinoline]
tentative responses for nociception (duration of scratching, biting, and licking behavior) (mice (ddY)): increased significantly and dose-dependently | tentative responses for nociception (duration of scratching, biting, and licking behavior) (mice (ddY); listed as Compound I): increases dose-dependently

CN(C(=O)/C=C/c1ccoc1)[C@@H]1CC[C@@]2(O)[C@H]3Cc4ccc(O)c5c4[C@@]2(CCN3CC2CC2)[C@H]1O5.Cl [Compound 2, (−)-17cyclopropyl-3,1 4β-dihydroxy-4,5α-epoxy-6β-[N-methyl-trans-3-(3-furyl)acrylamide] morphinan hydrochloride]
allodynia or hyperalgesia (difference between score of surgically operated foot and control foot) ([2]; after 2 hours): the effect of the drug disappeared | allodynia or hyperalgesia (difference between score of surgically operated foot and control foot) ([2]; thirty minutes after the administration, von Frey hairs 0.17 and 1.48 g): inhibited allodynia or hyperalgesia | allodynia or hyperalgesia associated with zosteriform skin lesions [3]: dose-dependently inhibited allodynia or hyperalgesia | inhibition of tentative responses for nociception induced by Compound 1 ([1]; 10 nmol/mouse intrathecal, simultaneously with Compound 1 (15 μg/mouse), compared to physiological saline solution-treated group): significantly inhibited | inhibition of tentative responses for nociception induced by Compound 1 ([1]; low dose of 1 or 3 nmol/mouse intrathecal, simultaneously with Compound 1, hydrochloride): dose-dependent inhibitory action; also recorded: dose-dependently inhibited | inhibition of tentative responses for nociception induced by Compound 1 ([1]; subcutaneously administered (systemic exposure), hydrochloride): dose-dependent inhibitory action; also recorded: dose-dependently inhibited

CN1CC[C@]23c4c5ccc(O)c4O[C@H]2[C@@H](O)C=C[C@H]3[C@H]1C5 [morphine, reference compound]
inhibition of tentative responses for nociception induced by Compound 1 [1, 4]: not inhibited at all
